Data taken from patent publication US10000476B2, “Pyridone derivative, pharmaceutical containing the same and methods of use thereof” (KAKEN PHARMACEUTICAL CO., LTD., priority 2011, dated 2018).

Key:
Format in all cases: biochemical
[1] = biological target: human MMP-2 (Homo sapiens (Human), UniProt P08253); assay: MMP-2 inhibition test; conditions: read-out: MMPs IC50 MMP-2
Description: (§1) MMP inhibition tests can be carried out, for example, using a fluorescent synthetic substrate based on the methods described in Bickett et al. (D. Mark Bickett et al., Anal. Biochem., 1993, 212, 58-64) and Nagase et al. (H. Nagase et al., J. Biol. Chem., 1994, 269, 20952-20957). The method for each MMP inhibition test is shown below.
90 μL (5 ng) of human MMP-2 (Calbiochem #444213) was mixed with 10 μL of 10 mM APMA, and activated by reacting at 37° C. for 1 hour. 10 μL of the resultant enzyme solution was diluted to 90 μL with an assay buffer A. The mixture was added to 90 μL of a 20 μM fluorescent substrate (MOCAc((7-methoxycoumarin-4-yl)acetyl)-Pro-Leu-Gly-Leu-A2pr(Dnp)-Ala-Arg-NH2, Peptide Institute Inc., #3163-v) (SEQ ID NO: 3) prepared with an assay buffer B, and reacted at 37° C. for 5 hours. Enzyme activity was then determined by measuring with a fluorescence intensity meter (Labsystems, Fluoroskan Ascent) at an excitation wavelength of 320 nm and a measurement wavelength of 405 nm.
(§2) From the enzyme activity in the presence or the absence of the test substance, the inhibition rate was determined, and the 50% inhibitiory concentration (IC50) of the test substance was calculated.

[2] = biological target: human MMP-13 (Homo sapiens (Human), UniProt P45452); assay: MMP-13 inhibition test; conditions: read-out: MMPs IC50 MMP-13
Description: as §1
90 μL (18 ng) of human MMP-13 (Calbiochem # CC068) or 90 μL (130 ng) of human MMP-13 (Calbiochem #444287) was mixed with 10 μL of 10 mM APMA, and activated by reacting at 37° C. for 1 hour. 10 μL of the resultant enzyme solution was diluted to 90 μL with an assay buffer A. The mixture was added to 90 μL of a 20 μM fluorescent substrate (Dnp-Pro-Cha-Gly-Cys(Me)-His-Ala-Lys(Nma)-NH2) (SEQ ID NO: 2) prepared with an assay buffer B, and reacted at 37° C. for 4 hours. Enzyme activity was then determined by measuring with a fluorescence intensity meter (Labsystems, Fluoroskan Ascent) at an excitation wavelength of 355 nm and a measurement wavelength of 460 nm.
as §2

[3] = biological target: TACE (Homo sapiens (Human), UniProt P78536); assay: TACE inhibition test (in vitro); conditions: fluorescent synthetic substrate, 37° C., 1.5 hours
Procedure, shortened: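 Recombinant enzyme (cDNA from THP-1 cells, expressed in mammalian or insect cells) with quenched substrate Nma-Leu-Ala-Gln-Ala-Val-Arg-Ser-Ser-Lys(Dnp)-D-Arg-NH2. Incubated 1.5 h at 37 °C; fluorescence read at ex 355/em 460 nm; IC50 from inhibition rate.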

[4] = biological target: human MMP-14 (Homo sapiens (Human), UniProt P50281); assay: MMP-14 inhibition test; conditions: read-out: MMPs IC50 MMP-14
Description: as §1
90 μL (1.9 ng) of human MMP-14 (Calbiochem #475935) prepared with an assay buffer A was added to 90 μL of a 20 μM fluorescent substrate (Dnp-Pro-Cha-Gly-Cys(Me)-His-Ala-Lys(Nma)-NH2) (SEQ ID NO: 2) prepared with an assay buffer B, and reacted at 37° C. for 5 hours. Enzyme activity was then determined by measuring with a fluorescence intensity meter (Labsystems, Fluoroskan Ascent) at an excitation wavelength of 355 nm and a measurement wavelength of 460 nm.
as §2

TACE, sequence (P78536 215-824): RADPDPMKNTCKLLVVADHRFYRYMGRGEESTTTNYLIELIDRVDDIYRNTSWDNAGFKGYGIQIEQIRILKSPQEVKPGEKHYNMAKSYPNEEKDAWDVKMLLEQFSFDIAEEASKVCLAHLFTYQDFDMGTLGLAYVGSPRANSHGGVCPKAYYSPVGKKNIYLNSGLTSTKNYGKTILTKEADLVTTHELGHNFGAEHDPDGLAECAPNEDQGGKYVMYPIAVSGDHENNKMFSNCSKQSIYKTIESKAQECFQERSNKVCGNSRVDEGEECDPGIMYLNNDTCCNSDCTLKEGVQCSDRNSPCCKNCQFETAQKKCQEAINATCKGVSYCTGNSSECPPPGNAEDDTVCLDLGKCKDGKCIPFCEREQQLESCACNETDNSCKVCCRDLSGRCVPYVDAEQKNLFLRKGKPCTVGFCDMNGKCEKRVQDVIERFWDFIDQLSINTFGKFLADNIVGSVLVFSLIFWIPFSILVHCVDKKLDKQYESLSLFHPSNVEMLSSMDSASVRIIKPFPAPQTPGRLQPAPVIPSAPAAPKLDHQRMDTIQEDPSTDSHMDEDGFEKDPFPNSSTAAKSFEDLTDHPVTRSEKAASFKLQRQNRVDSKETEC
human MMP-2, sequence (P08253 110-660): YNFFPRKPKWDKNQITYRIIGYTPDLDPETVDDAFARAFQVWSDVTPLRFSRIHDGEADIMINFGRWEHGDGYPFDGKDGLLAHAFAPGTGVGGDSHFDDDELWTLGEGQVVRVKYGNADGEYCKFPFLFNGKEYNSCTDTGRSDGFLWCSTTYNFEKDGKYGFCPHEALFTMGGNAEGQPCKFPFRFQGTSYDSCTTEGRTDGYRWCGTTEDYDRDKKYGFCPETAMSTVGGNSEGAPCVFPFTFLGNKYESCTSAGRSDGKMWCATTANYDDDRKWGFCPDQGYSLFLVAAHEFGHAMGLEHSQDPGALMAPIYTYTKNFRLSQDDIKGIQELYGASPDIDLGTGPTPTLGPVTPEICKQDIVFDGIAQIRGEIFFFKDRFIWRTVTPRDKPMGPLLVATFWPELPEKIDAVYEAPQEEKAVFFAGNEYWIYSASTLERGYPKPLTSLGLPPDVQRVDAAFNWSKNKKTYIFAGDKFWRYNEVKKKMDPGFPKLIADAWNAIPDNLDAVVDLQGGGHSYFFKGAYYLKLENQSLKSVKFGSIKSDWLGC

SMILES | IC50 [1] | IC50 [2] | IC50 [3] | IC50 [4]
Cc1cccn(CC2(c3ccccc3)NC(=O)NC2=O)c1=O (stereo not drawn) [Compound I-1, 5-[(3-methyl-2-oxopyridin-1(2H)-yl)methyl]-5-phenyl-imidazolidine-2,4-dione] | > 100 µM | 45 µM | < 0.1 µM | 31 µM
Cc1cccn(CC2(c3ccc(Oc4ccccc4)cc3)NC(=O)NC2=O)c1=O (stereo not drawn) [Compound I-9, 5-[(3-methyl-2-oxopyridin-1(2H)-yl)methyl]-5-(4-phenoxyphenyl)imidazolidine-2,4-dione] | 29 µM | > 100 µM | < 0.1 µM | 12 µM
Cc1cccn(CC2(c3ccc(F)c(F)c3)NC(=O)NC2=O)c1=O (stereo not drawn) [Compound I-10, 5-(3,4-difluorophenyl)-5-[(3-methyl-2-oxopyridin-1(2H)-yl)methyl] imidazolidine-2,4-dione] | > 100 µM | > 100 µM | < 0.1 µM | 30 µM
COc1ccc(Cl)cc1C1(Cn2cccc(C)c2=O)NC(=O)NC1=O (stereo not drawn) [Compound I-27, 5-(5-chloro-2-methoxyphenyl)-5-[(3-methyl-2-oxopyridin-1(2H)-yl)methyl]imidazolidine-2,4-dione] | 62 µM | > 100 µM | < 0.1 µM | 11 µM

Second part, the compound after the results:

IC50 [1] | IC50 [2] | IC50 [3] | IC50 [4] | SMILES
> 100 µM | > 100 µM | < 0.1 µM | 22 µM | Cc1cccn(CC2(c3ccc(Cc4ccccc4)cc3)NC(=O)NC2=O)c1=O (stereo not drawn) [Compound I-40, 5-(4-benzylphenyl)-5-[(3-methyl-2-oxopyridin-1(2H)-yl)methyl]imidazolidine-2,4-dione]
69 µM | > 100 µM | < 0.1 µM | 21 µM | Cc1cccn(CC2(c3ccc(Cc4ccc(F)cc4)cc3)NC(=O)NC2=O)c1=O (stereo not drawn) [Compound I-41, 5-[4-(4-fluorobenzyl)phenyl]-5-[(3-methyl-2-oxopyridin-1(2H)-yl)methyl] imidazolidine-2,4-dione]
31 µM | > 100 µM | < 0.1 µM | 22 µM | Cc1cccn(CC2(c3cccc(-c4cccnc4)c3)NC(=O)NC2=O)c1=O (stereo not drawn) [Compound I-62]
> 10 µM | > 100 µM | < 0.1 µM | 6 µM | Cc1cccn(CC2(c3ccc(OCc4ccccc4)cc3)NC(=O)NC2=O)c1=O (stereo not drawn) [Compound I-64]
51 µM | > 100 µM | < 0.1 µM | 23 µM | Cc1cccn(CC2(c3ccc(Oc4ccccc4F)cc3)NC(=O)NC2=O)c1=O (stereo not drawn) [Compound I-86]
